Experimental findings from US11254663B2 (BRISTOL-MYERS SQUIBB COMPANY, priority 2019, dated 2022) are described below.

The structures appear in SMILES notation.

As a reminder, the EC50 is the concentration needed to bring the measured effect to its halfway point. A low value points to higher potency in that assay.

FXR, sequence (Q96RI1 262-486): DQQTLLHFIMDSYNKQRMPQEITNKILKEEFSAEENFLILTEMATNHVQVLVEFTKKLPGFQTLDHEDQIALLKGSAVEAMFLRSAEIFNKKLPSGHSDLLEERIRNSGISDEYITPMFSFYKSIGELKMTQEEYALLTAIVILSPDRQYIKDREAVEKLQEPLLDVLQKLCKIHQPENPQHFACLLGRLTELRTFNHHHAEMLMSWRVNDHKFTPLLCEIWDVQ

The test addresses FXR (Homo sapiens (Human), UniProt Q96RI1). Description: FXR EC50 (FXR agonist potency reported with each Example). Type of test: cell-based.
Compound `O=C(N(CC12CCC(c3nc(C4CC4)no3)(CC1)CC2)c1cccc(-c2nc(C(F)F)co2)c1)C12CC(F)(C1)C2` [Example 40, N-((4-(3-cyclopropyl-1,2,4-oxadiazol-5-yl)bicyclo[2.2.2]octan-1-yl)methyl)-N-(3-(4-(difluoromethyl)oxazol-2-yl)phenyl)-3-fluorobicyclo[1.1.1]pentane-1-carboxamide] yielded an EC50 of 243 nM.

As to `CC1(c2nc(-c3cccc(N(CC45CCC(c6nc(C7CC7)no6)(CC4)CC5)C(=O)C45CC(F)(C4)C5)c3)no2)COC1` [Example 113, N-((4-(3-cyclopropyl-1,2,4-oxadiazol-5-yl)bicyclo[2.2.2]octan-1-yl)methyl)-3-fluoro-N-(3-(5-(3-methyloxetan-3-yl)-1,2,4-oxadiazol-3-yl)phenyl)bicyclo[1.1.1]pentane-1-carboxamide], the response was half-maximal at 121 nM (EC50).

On to `CCOc1ncc(-c2cccc(N(CC34CCC(c5nc(C6CC6)no5)(CC3)CC4)C(=O)C34CC(F)(C3)C4)c2)o1` [Example 7, N-((4-(3-cyclopropyl-1,2,4-oxadiazol-5-yl)bicyclo[2.2.2]octan-1-yl)methyl)-N-(3-(2-ethoxyoxazol-5-yl)phenyl)-3-fluorobicyclo[1.1.1]pentane-1-carboxamide], for which the midpoint of the response, the EC50, lay at 22 nM.

In the case of `CC(C)c1nc(-c2cccc(N(CC34CCC(c5cc(C6CC6)n(C)n5)(CC3)CC4)C(=O)C34CC(F)(C3)C4)c2)no1` [Example 169, N-((4-(5-cyclopropyl-1-methyl-1H-pyrazol-3-yl)bicyclo[2.2.2]octan-1-yl)methyl)-3-fluoro-N-(3-(5-isopropyl-1,2,4-oxadiazol-3-yl)phenyl)bicyclo[1.1.1]pentane-1-carboxamide], the EC50 came out at 98 nM.

Take `CCCc1ncc(-c2cccc(N(CC34CCC(c5cc(C(F)(F)F)ccn5)(CC3)CC4)C(=O)C34CC(F)(C3)C4)c2)o1` [Example 52, 3-fluoro-N-(3-(2-propyloxazol-5-yl)phenyl)-N-((4-(4-(trifluoromethyl)pyridin-2-yl)bicyclo[2.2.2]octan-1-yl)methyl)bicyclo[1.1.1]pentane-1-carboxamide]: the EC50 was determined as 242 nM.

Take `O=C(N(CC12CCC(c3ccc(C(F)(F)F)cn3)(CC1)CC2)c1cccc(-c2noc(C3CC3)n2)c1)C12CC(F)(C1)C2` [Example 185, N-(3-(5-cyclopropyl-1,2,4-oxadiazol-3-yl)phenyl)-3-fluoro-N-((4-(5-(trifluoromethyl)pyridin-2-yl)bicyclo[2.2.2]octan-1-yl)methyl)bicyclo[1.1.1]pentane-1-carboxamide]: the midpoint of the response, the EC50, lay at 508 nM.

Compound `O=C(N(CC12CCC(c3nc(C4CC4)no3)(CC1)CC2)c1cccc(-c2cnn(C(F)F)c2)c1)C12CC(F)(C1)C2` [Example 160, N-((4-(3-cyclopropyl-1,2,4-oxadiazol-5-yl)bicyclo[2.2.2]octan-1-yl)methyl)-N-(3-(1-(difluoromethyl)-1H-pyrazol-4-yl)phenyl)-3-fluorobicyclo[1.1.1]pentane-1-carboxamide] yielded an EC50 of 43 nM.

Compound `CC(=O)NC1(c2nc(-c3cccc(N(CC45CCC(c6nc(C7CC7)no6)(CC4)CC5)C(=O)C45CC(F)(C4)C5)c3)no2)CC1` [Example 111, N-(3-(5-(1-acetamidocyclopropyl)-1,2,4-oxadiazol-3-yl)phenyl)-N-((4-(3-cyclopropyl-1,2,4-oxadiazol-5-yl)bicyclo[2.2.2]octan-1-yl)methyl)-3-fluorobicyclo[1.1.1]pentane-1-carboxamide] yielded a half-maximal effective concentration (EC50) of 120 nM.

On to `O=C(C1CC(F)(F)C1)N(CC12CCC(c3cc(C(F)(F)F)ccn3)(CC1)CC2)c1cccc(-c2nc(C3CC3)no2)c1` [Example 49, N-(3-(3-cyclopropyl-1,2,4-oxadiazol-5-yl)phenyl)-3,3-difluoro-N-((4-(4-(trifluoromethyl)pyridin-2-yl)bicyclo[2.2.2]octan-1-yl)methyl)cyclobutane-1-carboxamide], for which the concentration giving a half-maximal response (EC50) was 1370 nM.

`O=C(N(CC12CCC(c3nc(C4CC4)no3)(CC1)CC2)c1cccc(-c2noc(C(F)F)n2)c1)C12CC(F)(C1)C2` [Example 105, N-((4-(3-cyclopropyl-1,2,4-oxadiazol-5-yl)bicyclo[2.2.2]octan-1-yl)methyl)-N-(3-(5-(difluoromethyl)-1,2,4-oxadiazol-3-yl)phenyl)-3-fluorobicyclo[1.1.1]pentane-1-carboxamide] returned an EC50 of 57 nM.

With `O=C([C@H]1C[C@](O)(C(F)(F)F)C1)N(CC12CCC(c3nc(C4CC4)no3)(CC1)CC2)c1cccc(-c2nc(C3CC3)no2)c1` [Example 9, (1s, 3s)-N-((4-(3-cyclopropyl-1,2,4-oxadiazol-5-yl)bicyclo[2.2.2]octan-1-yl)methyl)-N-(3-(3-cyclopropyl-1,2,4-oxadiazol-5-yl)phenyl)-3-hydroxy-3-(trifluoromethyl)cyclobutane-1-carboxamide], the EC50 came to 153 nM.

For `Cn1nc(C23CCC(CN(C(=O)C45CC(F)(C4)C5)c4cccc(-c5nc(C6CC6)no5)c4)(CC2)CC3)cc1C1CC1` [Example 124, N-(3-(3-cyclopropyl-1,2,4-oxadiazol-5-yl)phenyl)-N-((4-(5-cyclopropyl-1-methyl-1H-pyrazol-3-yl)bicyclo[2.2.2]octan-1-yl)methyl)-3-fluorobicyclo[1.1.1]pentane-1-carboxamide], the EC50 amounted to 89 nM.

`CC(C)(O)c1coc(-c2cccc(N(CC34CCC(c5nc(C6CC6)no5)(CC3)CC4)C(=O)C3CC(C(F)F)C3)c2)n1` (centres unmarked) [Example 17, N-((4-(3-cyclopropyl-1,2,4-oxadiazol-5-yl)bicyclo[2.2.2]octan-1-yl)methyl)-3-(difluoromethyl)-N-(3-(4-(2-hydroxypropan-2-yl)oxazol-2-yl)phenyl)cyclobutane-1-carboxamide]: the EC50 was 309 nM.

In turn, `O=C(N(CC12CCC(c3nc(C4CC4)no3)(CC1)CC2)c1cccc(-c2noc(C3CC(F)(F)C3)n2)c1)C12CC(F)(C1)C2` [Example 103, N-((4-(3-cyclopropyl-1,2,4-oxadiazol-5-yl)bicyclo[2.2.2]octan-1-yl)methyl)-N-(3-(5-(3,3-difluorocyclobutyl)-1,2,4-oxadiazol-3-yl)phenyl)-3-fluorobicyclo[1.1.1]pentane-1-carboxamide] registered an EC50 of 227 nM.

Compound `O=C(N(CC12CCC(c3noc(C45CC(F)(C4)C5)n3)(CC1)CC2)c1cccc(-c2nc(C3CC3)no2)c1)C12CC(F)(C1)C2` [Example 114, N-(3-(3-cyclopropyl-1,2,4-oxadiazol-5-yl)phenyl)-3-fluoro-N-((4-(5-(3-fluorobicyclo[1.1.1]pentan-1-yl)-1,2,4-oxadiazol-3-yl)bicyclo[2.2.2]octan-1-yl)methyl)bicyclo[1.1.1]pentane-1-carboxamide] gave a half-maximal effective concentration (EC50) of 177 nM.

Consider `CC(N(C(=O)C12CC(F)(C1)C2)c1cccc(-c2nc(C3CC3)no2)c1)C12CCC(c3nc(C4CC4)no3)(CC1)CC2` (single isomer, unassigned) [Example 218, N-(1-(4-(3-cyclopropyl-1,2,4-oxadiazol-5-yl)bicyclo[2.2.2]octan-1-yl)ethyl)-N-(3-(3-cyclopropyl-1,2,4-oxadiazol-5-yl)phenyl)-3-fluorobicyclo[1.1.1]pentane-1-carboxamide], for which the EC50 turned out to be 1120 nM.

Take `CC1(c2nc(C34CCC(CN(C(=O)C56CC(F)(C5)C6)c5cccc(-c6nnc(C7CC7)o6)c5)(CC3)CC4)no2)COC1` [Example 155, N-(3-(5-cyclopropyl-1,3,4-oxadiazol-2-yl)phenyl)-3-fluoro-N-((4-(5-(3-methyloxetan-3-yl)-1,2,4-oxadiazol-3-yl)bicyclo[2.2.2]octan-1-yl)methyl)bicyclo[1.1.1]pentane-1-carboxamide]: the EC50 was found to be 72 nM.

On to `O=C(N(CC12CCC(c3nc(C4CC4)no3)(CC1)CC2)c1cccc(-c2noc(C3CC3)n2)c1)C12CC(F)(C1)C2` [Example 104, N-(3-(5-cyclopropyl-1,2,4-oxadiazol-3-yl)phenyl)-N-((4-(3-cyclopropyl-1,2,4-oxadiazol-5-yl)bicyclo[2.2.2]octan-1-yl)methyl)-3-fluorobicyclo[1.1.1]pentane-1-carboxamide], for which the midpoint of the response, the EC50, lay at 60 nM.

Take `O=C(C1CC(C(F)F)C1)N(CC12CCC(c3nc(C4CC4)no3)(CC1)CC2)c1cccc(-c2nc(C(F)F)co2)c1` (centres unmarked) [Example 43, N-((4-(3-cyclopropyl-1,2,4-oxadiazol-5-yl)bicyclo[2.2.2]octan-1-yl)methyl)-3-(difluoromethyl)-N-(3-(4-(difluoromethyl)oxazol-2-yl)phenyl)cyclobutane-1-carboxamide]: it took 851 nM to reach a half-maximal effect (EC50).

In turn, `CC(C)(C)c1nc(C23CCC(CN(C(=O)C45CC(F)(C4)C5)c4cc(-c5nc(C6CC6)no5)ccn4)(CC2)CC3)no1` [Example 210, N-((4-(5-(tert-butyl)-1,2,4-oxadiazol-3-yl)bicyclo[2.2.2]octan-1-yl)methyl)-N-(4-(3-cyclopropyl-1,2,4-oxadiazol-5-yl)pyridin-2-yl)-3-fluorobicyclo[1.1.1]pentane-1-carboxamide] yielded a 50% effective concentration (EC50) of 48 nM.

Consider `N#CC1(c2ccc(C34CCC(CN(C(=O)C56CC(F)(C5)C6)c5cccc(-c6nc(C7CC7)no6)c5)(CC3)CO4)cc2)CC1` [Example 146, N-((1-(4-(1-cyanocyclopropyl)phenyl)-2-oxabicyclo[2.2.2]octan-4-yl)methyl)-N-(3-(3-cyclopropyl-1,2,4-oxadiazol-5-yl)phenyl)-3-fluorobicyclo[1.1.1]pentane-1-carboxamide], for which the EC50 was 334 nM.

`Cn1nc(C23CCC(CN(C(=O)C45CC(F)(C4)C5)c4cccc(-c5noc(C6CC6)n5)c4)(CC2)CC3)cc1C1CC1` [Example 170, N-(3-(5-cyclopropyl-1,2,4-oxadiazol-3-yl)phenyl)-N-((4-(5-cyclopropyl-1-methyl-1H-pyrazol-3-yl)bicyclo[2.2.2]octan-1-yl)methyl)-3-fluorobicyclo[1.1.1]pentane-1-carboxamide] had an EC50 of 74 nM.

`O=C(C1CCC1)N(CC12CCC(c3nc(C4CC4)no3)(CC1)CC2)c1cccc(-c2cnc(C3CC3)o2)c1` [Example 20, N-((4-(3-cyclopropyl-1,2,4-oxadiazol-5-yl)bicyclo[2.2.2]octan-1-yl)methyl)-N-(3-(2-cyclopropyloxazol-5-yl)phenyl)cyclobutanecarboxamide]: the EC50 is 138 nM.
